The record followed here is patent US20160296586A1, “AGENT FOR PREVENTING OR AM[…] ENDOTHELIAL MALFUNCTION” (KYOWA HAKKO BIO CO., LTD., priority 2012, published 2016).

The test system of this experiment is normal human umbilical vein endothelial cell (HUVEC). Nature of the experiment: NO production: nitrite (NO2) in HUVEC culture supernatant by HPLC. The class given is cell-based. The note with it: 24-hour culture, vs control (PBS), FIG. 1. Here is the method:
A normal human umbilical vein endothelial cell (HUVEC) line available from Clonetics (SanDiego, Calif., USA) was used with EGM-2 Bullet Kit medium containing 2% FBS (Takara Bio). The cells were cultured in at 37° C., in 5% CO2 incubator, and used for experiment after 4 to 6 passages. Citrulline and reduced glutathione were obtained from Kyowa Hakko Bio.
A cell suspension (0.45 mL) with the adjusted initial cell combination of 5×10^5 cells/mL was inoculated in a 24-well plate (IWAKI). After 40-hour culture, the media were replaced with those containing citrulline (final concentration 0.3 mM; citrulline group), reduced glutathione (final concentration 1 mM: high-dose glutathione group), and a citrulline and reduced glutathione mixture (citrulline final concentration 0.3 mM; glutathione final concentration 0.3 mM; citrulline+low -dose glutathione group). Media with the sole addition of solvent (PBS) were used as a control group. After 24-hour culture, the cell culture (100 μL) was centrifuged at 12,000 rpm for 10 minutes, and the concentration of nitrite (NO2), which is the stable NO metabolite, in culture supernatant was quantified by HPLC (ENO-20, EICOM).

Regarding `N[C@@H](CCC(=O)N[C@@H](CS)C(=O)NCC(=O)O)C(=O)O` [glutathione, reduced glutathione], where the note is “reduced glutathione final concentration 1 mM (high-dose)”, the “effect on NO production (nitrite NO2 concentration in medium)” value is recorded as “no effect on NO production”.
Consider `NC(=O)NCCC[C@H](N)C(=O)O` [citrulline], for which the “effect on NO production (nitrite NO2 concentration in medium)” value (citrulline final concentration 0.3 mM) is on record as “no effect on NO production”.
